SMILES strings stand for the structures.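 Assay format: 96-well plates, 48-hour exposure. Abbreviation: GI50, concentration required for 50% inhibition of growth.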 Activity calls are given as the source filed them. Cut-off read from the data, not from the text of the source: active = GI50 up to about 1.1 µM and inactive = higher.

The source of these data is ChEMBL document CHEMBL1201862, “PubChem BioAssay data set” (2004).

Some test systems named below: 786-0; A549; CCRF-CEM; COLO 205; EKVX; HOP-62; MCF7; MDA-MB-435; Malme-3M; NCI-H226; NCI-H460; NCI-H522; OVCAR-3; OVCAR-5; SF-268; SNB-75; T47D; TK-10; UACC-257; MOLT-4.
Common to all, as to test: inhibition of tumour cell growth, NCI panel, 48 h

Take `Cn1cnc([N+](=O)[O-])c1Sc1nc(N)nc2c1ncn2Cc1ccccc1`: the GI50 in the assay with 786-0 is 19 µM (inactive); in the assay on A549, 25.5 µM (inactive); in the assay on CCRF-CEM, 13.9 µM (inactive); in the assay with COLO 205 it was 16.2 µM (inactive); in the assay with EKVX, 11.5 µM (inactive); with HOP-62, 19.7 µM (inactive). In addition, the GI50 in the assay with MCF7 was 35.4 µM (inactive); in the assay with MDA-MB-435 it was 21.6 µM (inactive); with Malme-3M, 13.2 µM (inactive); in the assay on NCI-H226 it was 23.9 µM (inactive); with NCI-H460, 17.8 µM (inactive); in the assay with NCI-H522 it was 10.2 µM (inactive). The GI50 was 2.29 µM (inactive) with OVCAR-3; 23.2 µM (inactive) with OVCAR-5; 16.5 µM (inactive) with SF-268; 20.4 µM (inactive) in the assay on SNB-75; 13.8 µM (inactive) in the assay on T47D; 15.8 µM (inactive) in the assay on TK-10. Besides, the GI50 in the assay on UACC-257 is 14.3 µM (inactive).

As to `CCOP(=O)(CN1CCNCCN(CP(=O)(OCC)OCC)CC1)OCC`, the GI50 with 786-0 was > 100 µM (inactive); with A549, > 100 µM (inactive); in the assay with CCRF-CEM, > 31.6 µM (inactive); with COLO 205, > 100 µM (inactive); in the assay with EKVX, > 100 µM (inactive); in the assay with HOP-62, > 100 µM (inactive). Moreover, the GI50 in the assay on MCF7, in the assay on MDA-MB-435, in the assay with MOLT-4, in the assay with NCI-H226, in the assay with NCI-H460 and with NCI-H522 was > 100 µM (inactive) in each case. In addition, the GI50 in the assay with OVCAR-3, with OVCAR-5, with SF-268, in the assay on SNB-75, in the assay with T47D and with TK-10 was > 100 µM (inactive) in each case. The GI50 in the assay with UACC-257 is > 100 µM (inactive).

Take `COc1cc(NC(C)=O)ccc1C(=O)N/N=C/c1ccc(Cl)cc1Cl`: the GI50 in the assay on 786-0 is 24.9 µM (inactive); in the assay with A549, 48 µM (inactive); with CCRF-CEM, 95.3 µM (inactive); in the assay on COLO 205 it was > 100 µM (inactive); in the assay on EKVX, 32.7 µM (inactive); in the assay on HOP-62 it was 29.6 µM (inactive). In addition, the GI50 is 4.42 µM (inactive) with MCF7; 19.6 µM (inactive) in the assay on MDA-MB-435; 73.8 µM (inactive) with MOLT-4; 57.1 µM (inactive) in the assay on Malme-3M; 77.1 µM (inactive) in the assay on NCI-H226; 45.2 µM (inactive) in the assay with NCI-H522. Besides, the GI50 in the assay on OVCAR-3 is 52.8 µM (inactive); in the assay with OVCAR-5, 46.3 µM (inactive); in the assay on SF-268, 32.6 µM (inactive); in the assay with SNB-75, 13.6 µM (inactive); with T47D, 16.3 µM (inactive); in the assay with UACC-257 it was 27 µM (inactive).

In the case of `Cc1cc2[nH]c3[nH]c(=O)[nH]c(=O)c3c2cc1C`, the GI50 was > 100 µM (inactive) with 786-0; > 100 µM (inactive) with A549; > 100 µM (inactive) in the assay with CCRF-CEM; > 100 µM (inactive) with COLO 205; 20.3 µM (inactive) with EKVX; 29 µM (inactive) with HOP-62. Further, the GI50 with MCF7, with MDA-MB-435, in the assay on Malme-3M, in the assay on NCI-H226, in the assay with NCI-H522 and with OVCAR-5 was > 100 µM (inactive) throughout. Besides, the GI50 in the assay on SF-268, in the assay with SNB-75, with T47D, with TK-10 and in the assay on UACC-257 was > 100 µM (inactive) in each case.

In the case of `C=C1C(C2(C)C(OC(C)=O)CC(=O)OC(C)(COC(C)=O)C2CC(=O)OC)C(OC=O)C(OC(=O)C(O)C(C)CC)C2(C)C(c3ccoc3)CC(=O)C12O` (stereo unspecified), the GI50 in the assay with 786-0 is 5.98 µM (inactive); with A549 it was 3.56 µM (inactive); in the assay with CCRF-CEM, 0.65 µM (active); in the assay with COLO 205, 3.66 µM (inactive); with EKVX it was 6.32 µM (inactive); in the assay with HOP-62, 7.43 µM (inactive). The GI50 in the assay with MCF7 is > 25.5 µM (inactive); in the assay with MDA-MB-435, 6.61 µM (inactive); in the assay on MOLT-4 it was > 100 µM (inactive); in the assay with NCI-H226, 16.7 µM (inactive); with NCI-H460, 2.65 µM (inactive); with NCI-H522 it was 0.83 µM (active). Also, the GI50 in the assay on OVCAR-3 was > 42.7 µM (inactive); with OVCAR-5, > 100 µM (inactive); in the assay on SF-268 it was 3.72 µM (inactive); in the assay on SNB-75 it was 3.57 µM (inactive); with T47D, > 57.7 µM (inactive); with TK-10 it was 17.4 µM (inactive). Besides, the GI50 in the assay on UACC-257 was > 100 µM (inactive).

Regarding `CC(=O)Nc1c(C(=N)C#N)ncn1CCO`, the GI50 in the assay with 786-0, with A549, in the assay on CCRF-CEM, in the assay on COLO 205, with EKVX and in the assay with HOP-62 was > 100 µM (inactive) in each case. Further, the GI50 in the assay with MCF7, with MDA-MB-435, with Malme-3M, with NCI-H226, in the assay with NCI-H460 and with NCI-H522 was > 100 µM (inactive) in each case. Besides, the GI50 with OVCAR-3, in the assay with OVCAR-5, with SF-268, in the assay with SNB-75, with T47D and with TK-10 was > 100 µM (inactive) in each case. Also, in the assay on UACC-257, the GI50 is > 100 µM (inactive).

Turning to `O[C@H]1[C@H](O)[C@H](O)CN2CCC[C@@H](O)[C@H]12`, the GI50 in the assay with 786-0, with A549, in the assay with CCRF-CEM, in the assay with COLO 205, with EKVX and in the assay on HOP-62 was > 100 µM (inactive) throughout. For the same molecule, the GI50 with MCF7, in the assay on MDA-MB-435, in the assay with MOLT-4, with NCI-H226, in the assay with NCI-H522 and with OVCAR-3 was > 100 µM (inactive) in each case. Also, the GI50 with OVCAR-5 is > 100 µM (inactive); in the assay with SF-268 it was > 100 µM (inactive); in the assay on SNB-75, 81.1 µM (inactive); in the assay on T47D it was > 100 µM (inactive); in the assay on TK-10 it was > 100 µM (inactive); with UACC-257, > 100 µM (inactive).

With `Cc1c(C(=O)Nc2ccccc2)nnn1-c1ccnc2cc(C(F)(F)F)ccc12`, the GI50 is 74 µM (inactive) in the assay with 786-0; 89.5 µM (inactive) in the assay with A549; 39.4 µM (inactive) in the assay on CCRF-CEM; 55 µM (inactive) with COLO 205; 34.7 µM (inactive) with EKVX; 56.5 µM (inactive) in the assay on MCF7. Besides, the GI50 was 40.8 µM (inactive) with MDA-MB-435; 34 µM (inactive) in the assay with MOLT-4; 37 µM (inactive) with Malme-3M; 57.4 µM (inactive) in the assay on NCI-H226; 41.6 µM (inactive) with NCI-H460; 64.7 µM (inactive) with NCI-H522. In addition, the GI50 in the assay with OVCAR-3 is 67.1 µM (inactive); in the assay with OVCAR-5, > 100 µM (inactive); with SF-268, 78.9 µM (inactive); in the assay with SNB-75 it was 34.4 µM (inactive); with T47D, 32.4 µM (inactive); in the assay with TK-10, 85.5 µM (inactive). For the same molecule, the GI50 in the assay on UACC-257 is 22.1 µM (inactive).

In the case of `O=c1[nH]cnc2c1ncn2[C@@H]1C[C@H]1CO`, the GI50 in the assay on 786-0, in the assay on A549, in the assay on CCRF-CEM, in the assay on COLO 205, with EKVX and in the assay on HOP-62 was > 100 µM (inactive) throughout. Also, the GI50 in the assay on MCF7, in the assay with MDA-MB-435, in the assay on MOLT-4, in the assay with Malme-3M, with NCI-H226 and with NCI-H460 was > 100 µM (inactive) in each case. Further, the GI50 in the assay with NCI-H522, with OVCAR-5, with SF-268, in the assay with SNB-75, in the assay on T47D and in the assay with TK-10 was > 100 µM (inactive) in each case. For the same molecule, in the assay with UACC-257, the GI50 was > 100 µM (inactive).

With `C=C(C)[C@H]1C2=CC(C)=C(O2)[C@@H](O)[C@H](C(=C)C)CCC2=C[C@H]1OC2=O` [KALLOLIDE A], the GI50 in the assay on 786-0, in the assay with A549, in the assay on CCRF-CEM, in the assay with COLO 205, in the assay on EKVX and in the assay with MCF7 was > 100 µM (inactive) throughout. The GI50 in the assay with MDA-MB-435 was > 100 µM (inactive); with MOLT-4, > 100 µM (inactive); in the assay on Malme-3M, > 100 µM (inactive); with NCI-H226, > 100 µM (inactive); with NCI-H460, > 100 µM (inactive); in the assay on NCI-H522, 87.7 µM (inactive). Further, the GI50 in the assay with OVCAR-3, in the assay with OVCAR-5, in the assay on SF-268, with SNB-75, with T47D and in the assay with TK-10 was > 100 µM (inactive) each time. For the same molecule, the GI50 with UACC-257 is > 100 µM (inactive).
